Source: patent publication US20250222119A1, “ENGINEERING OF MULTIFUNCTIONAL PEPTIDES FOR CONTROLLED DRUG DELIVERY” (The Johns Hopkins University, priority 2022, published 2025)

How the values were obtained:
ARPE-19 cells = assay: Cell-penetration assay with biotinylated peptides in induced and non-induced ARPE-19 cells; format: cell-based; settings: C-terminal biotinylated peptide 100 μM, 6 h, 37° C.
Procedure: Four 96 well plates per group were seeded at 0.01×10^6 cells/well. ARPE-19 cells were either cultured with DMEM:F12 medium containing 10% FBS according to protocol provided by the vendor (non-induced) or cultured in DMEM high glucose, pyruvate media with […] of ferric ammonium citrate (Wolkow, N. et al., Exp Eye Res 128, 92-101, (2014)) for 2 months (induced) (Kim, Y. C. et al. Drug Deliv Transl Res, doi:10.1007/s13346-021-00987-6 (2021)). The expression of melanin was confirmed visually with bright field microscopy and by measuring absorbance at 475 nm (>0.4 a.u., not shown). Within each plate, 12 wells were randomly selected to quantify the cell numbers with an automated cell counter (Countess 3 Automated Cell Counter, Thermo Fisher) for normalization in the cell uptake study. Next, 100 μL (100 μM in pH 6.5 PBS) of each of the 127 C-terminal biotinylated peptides was added to n=3 wells for both the induced and non-induced ARPE-19 cells for 6 h at 37° C. The cells were then washed thoroughly 5 times with PBS solution to remove extracellular peptide. To quantify cell-associated peptides, the cells were lysed with 100 μL of RIPA lysis buffer at 4 C for 48 h. […] The mean intracellular concentration values were grouped by cell types (induced or non-induced), and the two-sample Wilcoxon test (Mann-Whitney) was calculated using the R function wilcox.test. Intracellular concentration values were also plotted against experimental melanin binding and the relationship was quantified using a simple linear model and its corresponding R^2.
It was next characterized how the predicted cell-penetrating properties of the peptides affected cell uptake in a retinal pigment epithelium (RPE) cell line (ARPE-19). ARPE-19 cells were cultured using standard methods (non-induced, n=3) and using culture conditions that induce melanin production (induced, n=3) (Kim, Y. C. et al., Drug Deliv Transl Res, doi:10.1007/s13346-021-00987-6 (2021)).

[1] = test system: normotensive Dutch Belted rabbits; assay: Rabbit IOP measurements after intracameral injection or topical dosing; format: in vivo; settings: single intracameral injection
Procedure: For the ICM injection procedure, rabbits were anesthetized with ketamine/xylazine and received topical anesthesia with 0.5% proparacaine hydrochloride. […] After the procedure, topical bacitracin-neomycin-polymyxin ophthalmic ointment was applied to both eyes to prevent infection and dry eyes. […] The IOP were measured immediately before the topical dosing (0 h), and at 2, 4, 6 and 8 h after the eyedrop administration.

Row | Molecule | cell uptake (intracellular peptide concentration) (ARPE-19 cells; induced (melanin-producing) ARPE-19 cells) | cell uptake (intracellular peptide concentration) (ARPE-19 cells; non-induced ARPE-19 cells) | time for the average ΔIOP to return to baseline [1] | peak reduction in IOP from baseline (ΔIOP) ([1]; at 2 days, n=5)
1 | YGRKKRRQRRR [TAT47-57] | 478±20.8 pmol/100K cells | 58.7±7.43 pmol/100K cells | – | –
2 | Brc1c(NC2=NCCN2)ccc2nccnc12 [brimonidine] | – | – | 8 days | −2.6±1.65 mmHg
3 | FSGKRRKRKPR [HR97] | – | 82.5±15.8 pmol/100K cells | – | –
